According to patent US20250275995A1, “NICOTINAMIDE RIBOSIDE DOSAGE REGIMEN FOR TREATING PARKINSON'S DISEASE” (VESTLANDETS INNOVASJONSSELSKAP AS (VIS), priority 2022, published 2025):

What was measured:
adult humans = conditions: dosages above 50-100 mg; cited from earlier work
brain NAD levels = assay: NAD-brain pharmacokinetic study: brain NAD by 31P-MRS; assay type: in vivo, human; conditions: 11 days after last dose, 1200 mg daily for 8 days
Protocol: • At screening, participants are assessed for eligibility, inclusion/exclusion criteria, medical history and concomitant medication is recorded, and informed consent signed. • The NAD-brain study performs a parallel assessment of NAD replenishment therapy pharmacokinetics in the blood and brain of healthy human subjects and subjects with Parkinson's disease (PD). Healthy individuals and individuals with PD undergo repeated blood sampling and 31P-MRS brain scans during two 20-day periods, each of which starts with 8 days of daily intake of NR 600 mg×2, or NMN 600 mg×2 (Table 10). • For each 20-day period the testing (i.e., scanning and blood draw) frequency is shown in Table 10, below. The two 20-day periods are 14 days apart to allow for washout of the previous compound. This is a pharmacokinetic (PK) study where 6 healthy individuals (3 male and 3 female): • 1) Received NR 1200 mg daily (600 mg×2) for 8 days, followed by an additional 11 days follow up, while undergoing serial blood and brain NAD-measurement. • 2) Received NMN 1200 mg daily (600 mg×2) for 8 days, followed by an additional 11 days follow up, while undergoing serial blood and brain NAD-measurement. The individuals were mixed, so that in stage-1 three individuals received NR and three individuals received NMN, then in stage-2 they switched (Cross-over design). There were almost three weeks (20 days) of washout between the last dose of the first compound, and before the first dose of the second compounds. In the brain, total NAD (NAD^++NADH) levels were measured by 31P-MRS as previously described^19. […] 19 Brakedal, B. et al. The […] study: A randomized phase I trial of nicotinamide riboside supplementation in Parkinson's disease. Cell Metab 34, 396-407.e6 (2022).

blood NAD^+ levels = assay: NAD-brain pharmacokinetic study: whole blood NAD+ response; assay type: in vivo, human
Protocol: The NAD-brain study performs a parallel assessment of NAD replenishment therapy pharmacokinetics in the blood and brain of healthy human subjects and subjects with Parkinson's disease (PD). A total of 10 healthy individuals (5 men and 5 women) and 10 individuals with PD (5 men and 5 women) undergo repeated blood sampling and 31P-MRS brain scans during two 20-day periods, each of which starts with 8 days of daily intake of NR 600 mg×2, or NMN 600 mg×2. The two 20-day period is 14 days apart to allow for washout of the previous compound. Blood is analyzed for NR and NAD-metabolites using HPLC-MS. By this approach, we measured the simultaneous change in NAD-metabolism overtime in blood and brain and establish blood and brain pharmacokinetics for NAD replenishment therapy in humans.
NR (Niagen®, Chromadex) at a dose of 600 mg×2 daily). NMN (Restorin®, from Seragon Pharmaceutics, or MIB-626 from Metro International Biotech) at a dose of 600 mg×2 daily.
• At screening, participants are assessed for eligibility, inclusion/exclusion criteria, medical history and concomitant medication is recorded, and informed consent signed. • The NAD-brain study performs a parallel assessment of NAD replenishment therapy pharmacokinetics in the blood and brain of healthy human subjects and subjects with Parkinson's disease (PD). Healthy individuals and individuals with PD undergo repeated blood sampling and 31P-MRS brain scans during two 20-day periods, each of which starts with 8 days of daily intake of NR 600 mg×2, or NMN 600 mg×2 (Table 10). • For each 20-day period the testing (i.e., scanning and blood draw) frequency is shown in Table 10, below. The two 20-day periods are 14 days apart to allow for washout of the previous compound.
Blood is analyzed for NR and NAD-metabolites using HPLC-MS metabolomics. Snap-frozen whole blood is used for the analysis of NAD^+. Blood is drawn from the participant in EDTA tube (VACUETTE® TUBE 2 ml K2E K2EDTA). The EDTA tube is gently inverted at least 10 times without shaking; 8×200 μl of blood from the EDTA tube is aliquoted into 8×0.5 ml micro tubes; these are closed, and all the micro tubes are immerse simultaneously in liquid nitrogen within 2 min from when blood has started flowing into the EDTA tube; then transferred frozen to −80° C. freezer for storage; stored at −80C in freezer-compatible cardboard or plastic storage boxes; and shipped on dry ice.
This is a pharmacokinetic (PK) study where 6 healthy individuals (3 male and 3 female): • 1) Received NR 1200 mg daily (600 mg×2) for 8 days, followed by an additional 11 days follow up, while undergoing serial blood and brain NAD-measurement. • 2) Received NMN 1200 mg daily (600 mg×2) for 8 days, followed by an additional 11 days follow up, while undergoing serial blood and brain NAD-measurement.
The individuals were mixed, so that in stage-1 three individuals received NR and three individuals received NMN, then in stage-2 they switched (Cross-over design). There were almost three weeks (20 days) of washout between the last dose of the first compound, and before the first dose of the second compounds.

Structure (SMILES) | flushing with NAD precursor supplementation (adult humans) | NAD levels at day 19 (brain NAD levels) | blood NAD^+ levels (blood NAD^+ levels; 1200 mg daily (600 mg×2) for 8 days, 6 healthy individuals) | day of maximal NAD levels in the blood (blood NAD^+ levels; 1200 mg daily for 8 days, last dose morning of day 8) [days] | plateau of blood NAD^+ levels (blood NAD^+ levels; after 8 days of precursor intake, 1200 mg daily)
O=C(O)c1cccnc1 [nicotinic acid] | painful flushing |  |  |  | 
NC(=O)c1ccc[n+]([C@@H]2O[C@H](COP(=O)([O-])O)[C@@H](O)[C@H]2O)c1 [NMN, Nicotinamide Mononucleotide] |  | returned to baseline by day 19 | increased in all individuals | 8 | did not plateau after 8 days
